# Test system: Hep3B cells (hepatocellular carcinoma cell line)
# Assay: In vitro MTS cell viability assay (NCI-60 methodology), Hep3B
# Format: cell-based
# Settings: Homo sapiens, 48 h, Table 1, MTS, 2 days drug incubation, 50% reduction vs time zero, read-out: Hep3B LC50
# Procedure: The cell viability measurement is based on the NCI-60 screening methodology (Nat. Rev. Cancer 6, 813-823, 2006). Briefly, cells are inoculated into 96-well plates at the optimal plating density. After 24 h, one of the two plates for Hep3B cell line is processed to determine a time zero cell viability (Tz) by MTS assay (Promega). Compounds are added over a 2-fold serial dilution to provide a total five drug concentrations plus DMSO control. Plates are incubated for a further 2 days, then measured cell viability by MTS assay [control growth (C) and test growth in the presence of drug at the five concentration levels (Ti)]. The LC50 is calculated from [(Ti−Tz)/Tz]×100=−50, which is the drug concentration resulting in a 50% reduction at the end of the drug treatment as compared to that at the beginning.
# The compounds prepared in Tables 1-10 were tested in three in vitro assays, and the results are shown in Tables 1-10 for Hep3B and Table 11 for SW480 and NCI-H460 shown below. Herein, Hep3B refers to hepatocellular carcinoma cell line, SW480 refers to colon adenocarcinoma cell line, and NCI-H460 refers to human lung cancer cell line.
# Shown in following Tables 1 to 10 are the structures and in vitro activities of exemplary compounds of formula (I).
row,Compound,LC50
1,"Cn1ncc2c(NC(=O)c3ccc([N+](=O)[O-])s3)nc(-c3ccc(C(C)(C)C)cc3)nc21 [Compound 1-1, N-(6-(4-(tert-butyl)phenyl)-1-methyl-1H-pyrazolo[3,4-d]pyrimidin-4-yl)-5-nitrothiophene-2-carboxamide]",1800 nM
2,"CC(C)n1ncc2c(NC(=O)c3ccc([N+](=O)[O-])s3)nc(-c3ccc(C(C)(C)C)cc3)nc21 [Compound 1-23, N-(6-(4-(tert-butyl)phenyl)-1-isopropyl-1H-pyrazolo[3,4-d]pyrimidin-4-yl)-5-nitrothiophene-2-carboxamide]",1570 nM
3,"CCC(C)(C)c1ccc(-c2nc(NC(=O)c3ccc([N+](=O)[O-])s3)c3cnn(C)c3n2)cc1 [Compound 1-9, N-(1-methyl-6-(4-(tert-pentyl)phenyl)-1H-pyrazolo[3,4-d]pyrimidin-4-yl)-5-nitrothiophene-2-carboxamide]",1500 nM

# Same assay, conditions: Homo sapiens, 48 h, Table 5, MTS, 2 days drug incubation, 50% reduction vs time zero, read-out: Hep3B LC50
row,Compound,LC50
1,"O=C(Nc1nc(-c2ccsc2)nc2c1cnn2-c1ccccc1)c1ccc([N+](=O)[O-])s1 [Compound 5-20, 5-nitro-N-(1-phenyl-6-(thiophen-3-yl)-1H-pyrazolo[3,4-d]pyrimidin-4-yl)thiophene-2-carboxamide]",1110 nM
2,"O=C(Nc1nc(-c2ccc(C(F)(F)F)cc2F)nc2c1cnn2-c1ccccc1)c1ccc([N+](=O)[O-])s1 [Compound 5-51, N-(6-(2-fluoro-4-(trifluoromethyl)phenyl)-1-phenyl-1H-pyrazolo[3,4-d]pyrimidin-4-yl)-5-nitrothiophene-2-carboxamide]",370 nM
3,"O=C(Nc1nc(-c2cccc(F)c2)nc2c1cnn2-c1ccccc1)c1ccc([N+](=O)[O-])s1 [Compound 5-26, N-(6-(3-fluorophenyl)-1-phenyl-1H-pyrazolo[3,4-d]pyrimidin-4-yl)-5-nitrothiophene-2-carboxamide]",410 nM
4,O=C(Nc1nc(Sc2ccc(Cl)cc2)nc2c1cnn2-c1ccccc1)c1ccc([N+](=O)[O-])s1 [Compound 5-16],360 nM

# Same assay, conditions: Homo sapiens, 48 h, Table 6, MTS, 2 days drug incubation, 50% reduction vs time zero, read-out: Hep3B LC50
row,Compound,LC50
1,"CCOC(=O)[C@@H]1CCCN1c1nc(NC(=O)c2ccc([N+](=O)[O-])s2)c2cnn(-c3ccc(F)cc3)c2n1 [Compound 6-101, ethyl (1-(4-fluorophenyl)-4-(5-nitrothiophene-2-carboxamido)-1H-pyrazolo[3,4-d]pyrimidin-6-yl)-L-prolinate]",> 1250 nM
2,"O=C(Nc1nc(-c2cccc(F)c2)nc2c1cnn2-c1cccc(Cl)c1)c1ccc([N+](=O)[O-])s1 [Compound 6-34, N-(1-(3-chlorophenyl)-6-(3-fluorophenyl)-1H-pyrazolo[3,4-d]pyrimidin-4-yl)-5-nitrothiophene-2-carboxamide]",190 nM
3,"CC1CCC(c2nc(NC(=O)c3ccc([N+](=O)[O-])s3)c3cnn(-c4ccc(F)cc4)c3n2)CC1 (stereo not drawn) [Compound 6-143, N-(1-(4-fluorophenyl)-6-(4-methylcyclohexyl)-1H-pyrazolo[3,4-d]pyrimidin-4-yl)-5-nitrothiophene-2-carboxamide]",1020 nM
4,"COc1ccc(-n2ncc3c(NC(=O)c4ccc([N+](=O)[O-])s4)nc(-c4ccc(Cl)cc4)nc32)cc1 [Compound 6-20, N-(6-(4-chlorophenyl)-1-(4-methoxyphenyl)-1H-pyrazolo[3,4-d]pyrimidin-4-yl)-5-nitrothiophene-2-carboxamide]",320 nM
5,"CC1(C)CCC(c2nc(NC(=O)c3ccc([N+](=O)[O-])s3)c3cnn(-c4ccc(F)cc4)c3n2)CC1 [Compound 6-145, N-(6-(4,4-dimethylcyclohexyl)-1-(4-fluorophenyl)-1H-pyrazolo[3,4-d]pyrimidin-4-yl)-5-nitrothiophene-2-carboxamide]",890 nM
6,"CCOCCOc1ccc(-c2nc(NC(=O)c3ccc([N+](=O)[O-])s3)c3cnn(-c4ccc(Cl)cc4)c3n2)cn1 [Compound 6-52, N-(1-(4-chlorophenyl)-6-(6-(2-ethoxyethoxy)pyridin-3-yl)-1H-pyrazolo[3,4-d]pyrimidin-4-yl)-5-nitrothiophene-2-carboxamide]",220 nM
7,"CC1(C)CC=C(c2nc(NC(=O)c3ccc([N+](=O)[O-])s3)c3cnn(-c4ccc(F)cc4)c3n2)CC1 [Compound 6-144, N-(6-(4,4-dimethylcyclohex-1-en-1-yl)-1-(4-fluorophenyl)-1H-pyrazolo[3,4-d]pyrimidin-4-yl)-5-nitrothiophene-2-carboxamide]",550 nM
8,O=C(Nc1nc(-c2ccc(C(F)(F)F)cc2C(F)(F)F)nc2c1cnn2-c1cccc(Cl)c1)c1ccc([N+](=O)[O-])s1 [Compound 6-42],760 nM
9,Cc1ccc(-n2ncc3c(NC(=O)c4ccc([N+](=O)[O-])s4)nc(-c4ccc5c(c4)OCO5)nc32)cc1 [Compound 6-9],400 nM
10,"C[C@@H]1CN(c2nc(NC(=O)c3ccc([N+](=O)[O-])s3)c3cnn(-c4ccc(F)cc4)c3n2)C[C@H](C)O1 [Compound 6-99, N-(6-((2S,6R)-2,6-dimethylmorpholino)-1-(4-fluorophenyl)-1H-pyrazolo[3,4-d]pyrimidin-4-yl)-5-nitrothiophene-2-carboxamide]",610 nM
11,CCC(C)(C)c1ccc(-c2nc(NC(=O)c3ccc([N+](=O)[O-])s3)c3cnn(-c4ccc(OC(F)(F)F)cc4)c3n2)cc1 [Compound 6-87],> 2000 nM
12,"O=C(Nc1nc(-c2ccc3c(c2)OCO3)nc2c1cnn2-c1ccc(F)cc1)c1ccc([N+](=O)[O-])s1 [Compound 6-124, N-(6-(benzo[d][1,3]dioxol-5-yl)-1-(4-fluorophenyl)-1H-pyrazolo[3,4-d]pyrimidin-4-yl)-5-nitrothiophene-2-carboxamide]",550 nM

# Same assay, conditions: Homo sapiens, 48 h, Table 7, MTS, 2 days drug incubation, 50% reduction vs time zero, read-out: Hep3B LC50
row,Compound,LC50
1,"Cc1ccc(-c2nc(NC(=O)c3ccc([N+](=O)[O-])s3)c3cnn(Cc4ccccc4)c3n2)cn1 [Compound 7-17, N-(1-benzyl-6-(6-methylpyridin-3-yl)-1H-pyrazolo[3,4-d]pyrimidin-4-yl)-5-nitrothiophene-2-carboxamide]",> 1250 nM
2,"O=C(Nc1nc(-c2ccc(F)cc2)nc2c1cnn2-c1ccccn1)c1ccc([N+](=O)[O-])s1 [Compound 7-8, N-(6-(4-fluorophenyl)-1-(pyridin-2-yl)-1H-pyrazolo[3,4-d]pyrimidin-4-yl)-5-nitrothiophene-2-carboxamide]",580 nM

# Same assay, conditions: Homo sapiens, 48 h, Table 8, MTS, 2 days drug incubation, 50% reduction vs time zero, read-out: Hep3B LC50
row,Compound,LC50
1,"CC(C)(C)C(=O)N1CC[C@H](n2ncc3c(NC(=O)c4ccc([N+](=O)[O-])s4)nc(-c4ccc(F)nc4)nc32)C1 [Compound 8-4, (S)—N-(6-(6-fluoropyridin-3-yl)-1-(1-pivaloylpyrrolidin-3-yl)-1H-pyrazolo[3,4-d]pyrimidin-4-yl)-5-nitrothiophene-2-carboxamide]",1490 nM

# Same assay, conditions: Homo sapiens, 48 h, Table 9, MTS, 2 days drug incubation, 50% reduction vs time zero, read-out: Hep3B LC50
row,Compound,LC50
1,"CCOC(=O)N1CCC(n2ncc3c(NC(=O)c4ccc([N+](=O)[O-])s4)nc(-c4ccc(F)nc4)nc32)CC1 [Compound 9-2, ethyl 4-(6-(6-fluoropyridin-3-yl)-4-(5-nitrothiophene-2-carboxamide)-1H-pyrazolo [3,4-d]pyrimidin-1-yl)piperidine-1-carboxylate]",> 5000 nM
2,CC(C)N1CCC(n2ncc3c(NC(=O)c4ccc([N+](=O)[O-])s4)nc(-c4ccc(F)nc4)nc32)CC1 [Compound 9-1],1250 nM
3,C=CC(=O)N1CCC(n2ncc3c(NC(=O)c4ccc([N+](=O)[O-])s4)nc(-c4ccc(F)nc4)nc32)CC1 [Compound 9-6],1250 nM

# Same assay, conditions: Homo sapiens, 48 h, Table 10, MTS, 2 days drug incubation, 50% reduction vs time zero, read-out: Hep3B LC50
row,Compound,LC50
1,"O=C(Nc1nc(-c2ccc(OCC(F)(F)C(F)F)nc2)nc2c1cnn2C1CCCCC1)c1ccc([N+](=O)[O-])s1 [Compound 10-52, N-(1-cyclohexyl-6-(6-(2,2,3,3-tetrafluoropropoxy)pyridin-3-yl)-1H-pyrazolo[3,4-d]pyrimidin-4-yl)-5-nitrothiophene-2-carboxamide]",420 nM
2,"O=C(Nc1nc(-c2ccc3c(c2)OCCO3)nc2c1cnn2C1CCCCC1)c1ccc([N+](=O)[O-])s1 [Compound 10-37, N-(1-cyclohexyl-6-(2,3-dihydrobenzo[b][1.4]dioxin-6-yl)-1H-pyrazolo[3,4-d]pyrimidin-4-yl)-5-nitrothiophene-2-carboxamide]",1940 nM
3,"COC(=O)c1ccc(-c2nc(NC(=O)c3ccc([N+](=O)[O-])s3)c3cnn(C4CC(C)CC(C)C4)c3n2)cc1 (stereo not drawn) [Compound 10-71, methyl 4-(1-(3,5-dimethylcyclohexyl)-4-(5-nitrothiophene-2-carboxamido)-1H-pyrazolo[3,4-d]pyrimidin-6-yl)benzoate]",690 nM
4,"O=C(Nc1nc(-c2ccc(Cl)s2)nc2c1cnn2C1CCCCC1)c1ccc([N+](=O)[O-])s1 [Compound 10-8, N-(6-(5-chlorothiophen-2-yl)-1-cyclohexyl-1H-pyrazolo[3,4-d]pyrimidin-4-yl)-5-nitrothiophene-2-carboxamide]",490 nM
5,"CC1CC(C)CC(n2ncc3c(NC(=O)c4ccc([N+](=O)[O-])s4)nc(-c4ccc(Cl)cc4)nc32)C1 (stereo not drawn) [Compound 10-69, N-(6-(4-chlorophenyl)-1-(3,5-dimethylcyclohexyl)-1H-pyrazolo[3,4-d]pyrimidin-4-yl)-5-nitrothiophene-2-carboxamide]",860 nM

# Reference: US20240150356A1, “Pyrimidine amide compounds and use thereof” (ALPHALA CO., LTD., priority 2019, published 2024)
